# Square brackets hold non-standard residues; d marks the D form. Peptide text beside a SMILES is read from it. * marks the point of attachment. ξ: configuration not given here. NH(1-OH-2-oxopiperidin-3-yl) = O=C1C(N*)CCCN1O; ξOrn(N(OH)CHO) = NC(CCCN(O)C=O)C(=O)O; ξAsp(3ξ-OH) = NC(C(=O)O)C(O)C(=O)O; X1 = CC(N)C(O)C(C)C(=O)*; Dhb = C/C=C(\N)C(=O)O
# Key:
# [1] = test system: THLE2; test: MTT cytotoxicity assay; format: cell-based, human; conditions: 24/72 hours
# Description: (§1) MTT (3-(4,5-Dimethylthiazol-2-yl)-2,5-diphenyltetrazolium bromide) is a colorimetric assay for measuring the activity of cellular enzymes that reduce the tetrazolium dye, MTT, to its insoluble formazan, giving a purple color. This assay measure mitochondrial metabolic activity via NAD(P)Hdependent cellular oxidoreductase enzymes and may, under defined conditions, reflect the number of viable cells. The cells used in this study were: Hep G2 (HB-8065) is a perpetual cell line which was derived from the liver tissue of a person with a well-differentiated hepatocellular carcinoma. THLE-2 is a perpetual cell line which was derived from the liver epithelial cells of an adult human transformed with SV40 large T antigen.
# (§2) The assay: cell concentration treatment 24 hours: Cells were seeded at a concentration of 2×10^4 cells/well in 200 μl culture medium and incubated at 37° C. in 5% CO2. Cell concentration treatment 72 hours: Cells were seeded at a concentration of 1×10^4 cells/well in 200 μl culture medium and incubated at 37° C. in 5% CO2. After 24 hours, the medium was replaced with a final volume of 200 μl and 1 μl of compound (dilution 1/200) and controls were added to the plates. […]
# (§3) When extracts/compounds and controls were added, plates were incubated at 37° C. in 5% CO2 incubator for 24/72 hours. […] The absorbance was measured using a multireader Victor™ at a wavelength of 570 nm.
# [2] = test system: HepG2; test: MTT cytotoxicity assay; format: cell-based, human; conditions: 24/72 hours
# Description: as §1, §2, §3
# [3] = test system: vancomycin resistant enterococci (VRE); test: Inhibition of VRE by Delftibactin A alone and with antibiotics; format: cell-based
# Description: FIG. 33 is a graph illustrating that Delftibactin A inhibits Vancomycin Resistant Enterococci (VRE).
# [4] = test system: C. albicans ATCC64124; test: Broth microdilution MIC; format: cell-based; conditions: lowest concentration that inhibited ≥50% of growth after overnight incubation
# Method: Deftibactin A was serially diluted in DMSO with a dilution factor of 2, to provide 10 concentrations for all the assays. The MIC is defined as the lowest concentration of compound that inhibited ≥90% or ≥50% of the growth of a microorganism after overnight incubation. Genedata Screener software (Genedata, Inc., Basel, Switzerland) was used to analyze the data and to determine the MICs and calculate the RZ′ factor, to estimate the robustness of the assays. Delftibactin A was tested on two different days and in triplicate.
# Broth microdilution was used to determine the minimal inhibitory concentration (MIC) according to the standards of the Clinical and Laboratory Standards Institute (CLSI) or the European Committee on Antimicrobial Susceptibility Testing (EUCAST). Cation-adjusted Mueller-Hinton broth (CAMHB) was used with inoculum of about 5×10^5 cfu ml^−1 of the tested pathogen. Direct suspension of overnight colonies into CAMHB was used for the generation of the bacterial suspension. The tested inhibited compound or supernatant was used in doubling dilutions in 50 μl of CAMHB and inoculated with an equal amount of bacteria in the broth.
# [5] = test system: Deftia strain 2189; test: Delftibactin A as carrier of gallium; format: cell-based, Delftia; conditions: with gallium
# Description: FIG. 36 is a graph illustrating that Delftibactin A can be used as a carrier of inhibitory antimicrobial agents such as gallium to inhibit harmful bacterial strains such as Deftia strain 2189.
structure (smiles),measurement,setting,value
C/C=C(\NC(=O)CNC(=O)C(NC(=O)C(NC(=O)C(C)C(O)C(C)N)C(O)C(=O)O)C(C)O)C(=O)NC(CCCN(O)C=O)C(=O)NC(CO)C(=O)NC(CCCN=C(N)N)C(=O)NC1CCCN(O)C1=O (stereo not shown) [Delftibactin A] (X1-[ξAsp(3ξ-OH)]TG[Dhb][ξOrn(N(OH)CHO)]SR-{NH(1-OH-2-oxopiperidin-3-yl)}; configuration not given here),cytotoxic activity (MTT),[1],not have cytotoxic activity
same,cytotoxic activity (MTT),[2],not have cytotoxic activity
same,inhibition of vancomycin resistant enterococci (VRE),[3],inhibits
same,combined antimicrobial effect with clarithromycin on VRE,[3]; Delftibactin A 10 μM,additive combined antimicrobial effect
same,combined antimicrobial effect with rifampicin on VRE,[3]; Delftibactin A 10 μM,additive combined antimicrobial effect
same,MIC50,[4],16 µg/mL
same,inhibition of Deftia strain 2189 as carrier of gallium,[5],inhibit
